Experimental data taken from PMC6694100, “The complex of ferric-enterobactin with its transporter from Pseudomonas aeruginosa suggests a two-site model” (Nature Communications, 2019).
Several values for one entry are separate records, joined by “and”; a condition that tells them apart may be missing. Identical values can stand only once. Entries after “also recorded” stand apart in the source; their conditions may differ.

What was measured:
[1] = target: T1, PfeA G324V mutant (Pseudomonas aeruginosa, UniProt Q05098, G349V); experiment: isothermal titration calorimetry, PfeA G324V; assay type: binding
T1 construct: His7 tag with TEV protease site (N, cleaved yes); made in house; host or cells: E. coli C43 (DE3)
Method: The sites have different affinities for the ligand, one with high affinity and highly favourable enthalpy and the second with lower affinity and unfavourable enthalpy. Although the biphasic nature of the isotherm was reproducible, the numerical values varied. For K1, the binding constant was 20 to 100 nM; for K2 […]. […] The weaker binding at the […] site is consistent with the higher B-factor of the Fe^3+-enterobactin molecule observed in the complex crystal structures.
Affinities of PfeA wild-type and mutants for Fe^3+-enterobactin were measured by isothermal titration calorimetry using a VP-ITC instrument (GE Healthcare) at 25 °C. Titrations were performed using 57 × 5 μl injections of Fe^3+-enterobactin (70–55 μM) into 10 μM protein. The heats of dilution measured from injection of the ligands into the buffer were subtracted, and titration curves were fitted using AFFINImeter software with a two-site binding model. Concentrations of Fe^3+-enterobactin solutions were verified with UV/vis spectrophotometry using a published molar extinction coefficient of ε495 = 5600 M^−1 cm^−1. […] Reverse titration has been also performed (PfeA into Fe^3+-enterobactin), but data suffer from high heats of dilution in the beginning of the blank titration of PfeA into the buffer giving estimates of K1 = 95 nM and K2 = 4.5 μM for the wild-type.

[2] = tested on: ∆pfeA cells with no plasmid; experiment: 55Fe-enterobactin binding and uptake assay, ∆pfeA; assay type: cell-based, Pseudomonas aeruginosa; conditions: for 55Fe count, Comptage / 55Fe-enterobactin bound/taken up: replicates, Figure 6b-c, listed as 55Fe-enterobactin
Method: (§1) Fig. 6 Effects of PfeA mutation in vivo. a Analysis of changes in the transcription of pfeA gene. PAO1 strain, its corresponding deletion mutant ∆pfeA and deletion mutants carrying the expression plasmid of PfeA wild-type (∆pfeA(pMMBpfeA) or the R480A-Q482A mutant (∆pfeA(pMMBpfeAR480AQ482A)) were grown in CAA medium supplemented with 10 µM enterobactin. The data were normalised relative to the reference gene uvrD, and are representative of three independent experiments performed in triplicate (n = 3). The results are given as a ratio between the values obtained for ∆pfeA, ∆pfeA(pMMBpfeA) and ∆pfeA(pMMBpfeAR480AQ482A) over those obtained for the PAO1 strain. b ^55Fe-enterobactin binding at the bacterial surface. Cells were grown as in panel a, and were incubated for 15 min with 200 µM CCCP before initiation of transport assays by the addition of 500 nM ^55Fe-enterobactin. After 30 min incubation, the radioactivity accumulated in the bacteria was counted. The results are expressed as pmol of ^55Fe-enterobactin bound per ml of cells at an OD600 of 1. The experiments have been repeated three times. c ^55Fe-enterobactin binding and uptake. Cells were grown as in panel a, and were incubated with or without 200 µM CCCP before initiation of transport assays by the addition of 500 nM ^55Fe-enterobactin. After 30 min incubations, the radioactivity accumulated in the bacteria was counted. The results are expressed as pmol of ^55Fe-enterobactin bound and transported per ml of cells at an OD600 of 1. The experiments have been repeated three times
(§2) The complex was prepared at ^55Fe concentrations of 50 μM, with a siderophore:iron (mol:mol) ratio of 20:1. P. aeruginosa strains were first grown overnight at 30 °C in LB broth, and were then washed, resuspended and cultured overnight at 30 °C in iron-deficient CAA medium (casamino acid medium, composition: 5 g.l^−1 low-iron CAA (Difco), 1.46 g.l^−1 K2HPO4 3H2O, 0.25 g.l^−1 MgSO4 7H2O) and in the presence of 10 µM enterobactin to induce the expression of PfeA. CAA is a highly iron-restricted medium with iron concentrations of 20 nM[59]. Afterwards bacteria were washed with 50 mM Tris-HCl pH 8.0, and diluted to an OD600 of 1. Cells solutions were divided in two, one batch being treated with 200 μM CCCP. This compound collapses the proton-motive force across the bacterial cell membranes, inhibiting TonB-dependent iron uptake. Binding and transport assays were initiated by adding 500 nM ^55Fe-enterobactin to the bacterial solutions treated or not with CCCP. After 30 min of incubations, cells were centrifuged, and the radioactivity associated to the bacteria was monitored in the cell pellets. For the cells treated with CCCP, the radioactivity in the cell pellets corresponds to the binding of ^55Fe-enterobactin to P. aeruginosa cell surface, since no uptake occurs. In the absence of CCCP, the radioactivity associated to the cells corresponds to ^55Fe-enterobactin binding to the cell surface and the uptake into the bacteria.

[3] = target: T2, PfeA R480A-Q482A double mutant (Pseudomonas aeruginosa, UniProt Q05098, Q507A/R505A); experiment: coelution on S200 size-exclusion column, PfeA R480A-Q482A; assay type: binding
T2 construct: His7 tag with TEV protease site (N, cleaved yes); made in house; host or cells: E. coli C43 (DE3)
Method: Proteins were incubated with the Fe^3+-siderophore before being loaded on a S200 size-exclusion column.

[4] = tested on: ∆pfeA(pMMBpfeAR480AQ482A) cells (double-mutant PfeA); experiment: 55Fe-enterobactin binding and uptake assay, ∆pfeA(pMMBpfeAR480AQ482A); assay type: cell-based, Pseudomonas aeruginosa; conditions: for 55Fe count, Comptage / 55Fe-enterobactin bound/taken up: replicates, Figure 6b-c, listed as 55Fe-enterobactin
Method: as §1, §2

[5] = ∆pfeA (pMMBpfeAR480AQ482A) + CCCP
[6] = ∆pfeA (pMMBpfeAR480AQ482A), no CCCP

T1 sequence (Q05098 26-746 G349V): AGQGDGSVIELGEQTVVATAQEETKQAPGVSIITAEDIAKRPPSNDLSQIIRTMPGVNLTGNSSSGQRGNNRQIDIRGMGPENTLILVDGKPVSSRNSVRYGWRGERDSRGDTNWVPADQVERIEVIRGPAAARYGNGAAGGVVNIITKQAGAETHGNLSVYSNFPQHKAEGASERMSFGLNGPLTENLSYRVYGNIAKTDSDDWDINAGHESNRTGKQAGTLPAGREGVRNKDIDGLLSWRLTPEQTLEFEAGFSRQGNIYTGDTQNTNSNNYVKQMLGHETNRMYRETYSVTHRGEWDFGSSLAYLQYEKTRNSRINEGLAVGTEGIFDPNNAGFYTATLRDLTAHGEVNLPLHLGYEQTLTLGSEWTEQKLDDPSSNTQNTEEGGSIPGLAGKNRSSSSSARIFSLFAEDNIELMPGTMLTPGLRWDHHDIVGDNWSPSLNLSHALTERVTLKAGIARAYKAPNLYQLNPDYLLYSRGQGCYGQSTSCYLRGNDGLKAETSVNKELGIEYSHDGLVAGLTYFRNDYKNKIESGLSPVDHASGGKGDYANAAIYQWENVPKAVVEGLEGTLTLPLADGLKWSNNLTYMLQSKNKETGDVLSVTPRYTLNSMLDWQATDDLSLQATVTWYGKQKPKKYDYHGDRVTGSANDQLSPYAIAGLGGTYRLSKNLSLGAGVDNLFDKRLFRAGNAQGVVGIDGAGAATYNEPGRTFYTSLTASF
T2 sequence (Q05098 26-746 R505A/Q507A): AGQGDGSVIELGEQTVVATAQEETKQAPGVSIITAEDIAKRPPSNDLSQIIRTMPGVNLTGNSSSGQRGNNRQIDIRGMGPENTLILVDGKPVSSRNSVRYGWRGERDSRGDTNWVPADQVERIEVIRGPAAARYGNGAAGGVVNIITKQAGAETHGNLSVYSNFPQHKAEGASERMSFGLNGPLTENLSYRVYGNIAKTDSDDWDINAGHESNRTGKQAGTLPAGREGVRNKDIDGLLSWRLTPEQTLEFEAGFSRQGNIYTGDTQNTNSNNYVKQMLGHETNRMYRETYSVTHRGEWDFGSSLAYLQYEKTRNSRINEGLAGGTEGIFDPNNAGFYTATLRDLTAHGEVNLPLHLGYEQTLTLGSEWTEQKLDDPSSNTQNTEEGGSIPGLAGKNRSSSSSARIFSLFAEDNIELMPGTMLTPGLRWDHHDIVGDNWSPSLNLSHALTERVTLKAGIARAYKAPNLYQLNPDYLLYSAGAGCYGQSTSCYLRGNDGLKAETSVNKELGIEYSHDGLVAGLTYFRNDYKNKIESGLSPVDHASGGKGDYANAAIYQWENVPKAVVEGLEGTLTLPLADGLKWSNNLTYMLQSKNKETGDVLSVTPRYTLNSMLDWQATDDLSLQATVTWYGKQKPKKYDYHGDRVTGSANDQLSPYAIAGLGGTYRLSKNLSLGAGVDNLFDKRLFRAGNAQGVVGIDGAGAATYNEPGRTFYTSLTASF

O=C(N[C@H]1COC(=O)[C@@H](NC(=O)c2cccc([O-])c2[O-])COC(=O)[C@@H](NC(=O)c2cccc([O-])c2[O-])COC1=O)c1cccc([O-])c1[O-].[Fe+3] [Fe^3+-enterobactin]
binding by ITC [1]: no binding was detected; also recorded: did not show any detectable binding | ^55Fe-siderophore binding at the bacterial surface ([2]; CCCP treated cells (200 µM), 500 nM ^55Fe-enterobactin, 30 min): same low level of binding as wild-type PAO1 | 55Fe count, Comptage ([2]; ∆pfeA + CCCP): 1560 dpm and 1268 dpm and 1340 dpm | 55Fe-enterobactin bound/taken up ([2]; ∆pfeA + CCCP): 20.0147 pmol/ml/DO600 and 16.2683 pmol/ml/DO600 and 17.1921 pmol/ml/DO600 | 55Fe count, Comptage ([2]; ∆pfeA, no CCCP): 3228 dpm and 4151 dpm and 2977 dpm | 55Fe-enterobactin bound/taken up ([2]; ∆pfeA, no CCCP): 41.415 pmol/ml/DO600 and 53.257 pmol/ml/DO600 and 38.1947 pmol/ml/DO600 | coelution with protein on size-exclusion column [3]: does not coelute | ^55Fe-enterobactin binding and uptake ([4]; cells not treated with CCCP, 500 nM ^55Fe-enterobactin, 30 min): inactive | 55Fe count, Comptage [4, 5]: 1611 dpm and 1344 dpm and 1594 dpm | 55Fe-enterobactin bound/taken up [4, 5]: 20.669 pmol/ml/DO600 and 17.2434 pmol/ml/DO600 and 20.4509 pmol/ml/DO600 | 55Fe count, Comptage [4, 6]: 2941 dpm and 2752 dpm and 2956 dpm | 55Fe-enterobactin bound/taken up [4, 6]: 37.7328 pmol/ml/DO600 and 35.3079 pmol/ml/DO600 and 37.9252 pmol/ml/DO600
